Numbered stars: 1 amine (or outer) side, 2 acyl side, 3 side chain; on linkers, the order of the positions; unused ones are H or OH. Square brackets hold non-standard residues; d marks the D form. Peptide text beside a SMILES is read from it. X7 = O=C([C@@H](N[*:1])c1cccc2ccccc12)[*:2]; hArg(Et2) = CCN=C(NCC)NCCCC[C@H](N)C(=O)O; Phg(4-OMe) = COc1ccc([C@H](N)C(=O)O)cc1; Gly(NCH2CH2Ph) = O=C(O)CNCCc1ccccc1; PEG6 = NCCOCCOCCOCCOCCOCCOCCC(=O)O; Hyp = O=C(O)[C@@H]1C[C@@H](O)CN1; Hpg = N[C@H](C(=O)O)c1ccc(O)cc1; NMeN = CN[C@@H](CC(N)=O)C(=O)O; Aoc(2) = CCCCCC[C@H](N)C(=O)O; Ahp(2) = CCCCC[C@H](N)C(=O)O; Phg = N[C@H](C(=O)O)c1ccccc1; Nle = CCCC[C@H](N)C(=O)O
Tests used:
[1] = biological target: T1, human orexin type 1 receptor (hOX1R) (Homo sapiens, UniProt O43613); experiment: Measurement of orexin type 1 receptor agonist activity (FLIPR TETRA intracellular Ca2+ fluorescence); assay type: cell-based; details: CHO cells expressing hOX1R; agonist activity, Ca2+ fluorescence; read-out: hOX1 pEC50 (converted)
T1 construct: expressed in transfected cells
T1 sequence (O43613 1-425): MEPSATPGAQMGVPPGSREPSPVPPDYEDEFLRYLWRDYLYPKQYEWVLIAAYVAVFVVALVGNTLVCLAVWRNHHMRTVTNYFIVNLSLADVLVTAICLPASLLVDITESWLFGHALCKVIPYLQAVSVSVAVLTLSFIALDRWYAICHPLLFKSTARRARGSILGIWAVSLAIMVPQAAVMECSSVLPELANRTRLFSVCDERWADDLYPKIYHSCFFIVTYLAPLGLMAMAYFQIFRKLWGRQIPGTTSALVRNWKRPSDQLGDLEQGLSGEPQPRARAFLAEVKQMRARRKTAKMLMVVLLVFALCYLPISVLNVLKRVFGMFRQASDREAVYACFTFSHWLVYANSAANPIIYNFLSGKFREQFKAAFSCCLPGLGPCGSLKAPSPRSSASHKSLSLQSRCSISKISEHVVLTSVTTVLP
Method: (§1) Stable cell line generation. Obtainment of cells stably expressing either human orexin type 2 or human orexin type 1 receptor: to obtain a stable cell line the Orexin receptor cDNA was inserted into pcDNA3.1(+) plasmid vector and clones identified by G418 drug resistance selection. […] A single clone for OX2R—CHO and OX1R—CHO were grown in bulk and frozen to generate a cell bank for routine screening.
(§2) Measurement of orexin type 1 receptor agonist activity. Chinese hamster ovary (CHO) cells expressing human orexin type 1 receptor (hOX1R) were seeded in each well of 384 well black clear bottom plates (BD Flacon) at 10,000 cells per well and cultured for 24 h in an Ham's F12 (Gibco) medium containing 10% fetal calf serum (Sigma Aldrich) under the conditions of 37° C., 5% CO2. After removal of the medium, 50 μL of assay buffer 1 (0.1% bovine serum albumin (Sigma Aldrich), 20 mM HEPES (Molecular Dimensions), […] probenecid (Sigma Aldrich), 1× Calcium 5 dye (Molecular Devices) in Hank's balanced salt solution (Invitrogen)) was added, and the cells were incubated for 60 min under the conditions of 37° C., 5% CO2. A test peptide was dissolved in dimethyl sulfoxide (Sigma Aldrich) to 1 mM, and then diluted with assay buffer 2 (20 mM HEPES, Hank's balanced salt solution, 0.1% bovine serum albumin). For the reaction, a test peptide solution (10 μl) was added using Fluorescent Imaging Plate Reader TETRA (FLIPR TETRA: manufactured by Molecular Devices), a fluorescence value (excitation wavelength 488 nm, measurement wavelength 570 nm) of each well was measured every one second for 2 min, and the agonist activity was determined using the area of the fluorescence value as an indicator of intracellular Ca^2+ concentration. The agonist activity of the test peptide was calculated assuming that the fluorescence value of the well added with only the dilution buffer was 0% and the fluorescence value of the well added with 10 nM human orexin A (Tocris) buffer was 100%. As used herein, Emax indicates the value at 1 μM concentration when orexin A is converted to a full agonist (maximum value of agonist activity: 100%).

[2] = biological target: T2, human orexin type 2 receptor (hOX2R) (Homo sapiens, UniProt O43614); experiment: Measurement of orexin type 2 receptor agonist activity (FLIPR TETRA intracellular Ca2+ fluorescence); assay type: cell-based; details: CHO cells expressing hOX2R; agonist activity, Ca2+ fluorescence; read-out: hOX2 pEC50 (converted)
T2 construct: expressed in transfected cells
T2 sequence (O43614 1-444): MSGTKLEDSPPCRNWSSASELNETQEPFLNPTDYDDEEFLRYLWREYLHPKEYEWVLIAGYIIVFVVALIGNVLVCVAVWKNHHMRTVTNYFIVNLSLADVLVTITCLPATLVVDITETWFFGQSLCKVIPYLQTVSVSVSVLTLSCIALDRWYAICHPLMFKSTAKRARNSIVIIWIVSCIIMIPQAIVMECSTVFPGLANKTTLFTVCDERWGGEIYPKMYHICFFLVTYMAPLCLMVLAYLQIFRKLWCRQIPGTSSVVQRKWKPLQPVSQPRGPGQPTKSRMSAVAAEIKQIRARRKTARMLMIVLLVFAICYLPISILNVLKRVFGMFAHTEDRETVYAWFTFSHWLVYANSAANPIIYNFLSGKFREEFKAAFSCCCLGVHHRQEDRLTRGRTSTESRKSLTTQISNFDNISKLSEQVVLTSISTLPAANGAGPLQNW
Method: as §1
as §2, with “type 2” for “type 1”, “receptor (hOX2R)” for “receptor (hOX1R) were”

Row | Compound | EC50 [1] | EC50 [2]
1 | CCCCCC[C@H](NC(=O)[C@@H](NC(=O)[C@H](CC(C)C)NC(=O)[C@@H](NC(=O)CNC(=O)[C@@H](NC(=O)[C@H](C)NC(=O)[C@@H]1C[C@@H](O)CN1C(=O)[C@H](CC(N)=O)N(C)C(=O)CN(CCc1ccccc1)C(=O)[C@H](CCCNC(=N)N)NC(=O)CCOCCOCCOCCOCCOCCOCCN)c1ccccc1)[C@@H](C)CC)[C@@H](C)O)C(N)=O [Peptide 6] (H-[PEG6]R[Gly(NCH2CH2Ph)][NMeN][Hyp]A[Phg]GILT[Aoc(2)]-NH2) | > 10 nM | < 0.1 nM
2 | CCCCCC[C@H](NC(=O)[C@@H](NC(=O)[C@H](CC(C)C)NC(=O)[C@@H](NC(=O)CNC(=O)[C@@H](NC(=O)[C@H](C)NC(=O)[C@@H]1C[C@@H](O)CN1C(=O)[C@H](CC(N)=O)NC(=O)CN(CCc1ccccc1)C(=O)[C@@H](N)CCCCNC(=NCC)NCC)c1cccc2ccccc12)[C@@H](C)CC)[C@@H](C)O)C(N)=O [Peptide 9] (H-[hArg(Et2)][Gly(NCH2CH2Ph)]N[Hyp]A[X7]GILT[Aoc(2)]-NH2; N-terminus assumed) | > 10 nM | < 0.1 nM
3 | CCCCCC[C@H](NC(=O)[C@@H](NC(=O)[C@H](CC(C)C)NC(=O)[C@@H](NC(=O)CNC(=O)[C@@H](NC(=O)[C@H](C)NC(=O)[C@H](Cc1c[nH]cn1)NC(=O)[C@H](CC(N)=O)NC(=O)CN(CCc1ccccc1)C(=O)[C@@H](N)CCCCN/C(=N/CC)NCC)c1ccc(OC)cc1)[C@@H](C)CC)[C@@H](C)O)C(N)=O [Peptide 12] (H-[hArg(Et2)][Gly(NCH2CH2Ph)]NHA[Phg(4-OMe)]GILT[Aoc(2)]-NH2) | > 10 nM | < 0.1 nM
4 | CCCCCC[C@H](NC(=O)[C@@H](NC(=O)[C@H](CC(C)C)NC(=O)[C@@H](NC(=O)CNC(=O)[C@@H](NC(=O)[C@H](C)NC(=O)[C@@H]1C[C@@H](O)CN1C(=O)[C@H](CC(N)=O)NC(=O)CN(CCc1ccccc1)C(=O)[C@@H](N)CCCCN/C(=N/CC)NCC)c1ccc(O)cc1)[C@@H](C)CC)[C@@H](C)O)C(N)=O [Peptide 7] (H-[hArg(Et2)][Gly(NCH2CH2Ph)]N[Hyp]A[Hpg]GILT[Aoc(2)]-NH2) | > 10 nM | < 0.1 nM

Results, then the molecule that gave them:

Row | EC50 [1] | EC50 [2] | Compound
5 | > 10 nM | < 0.1 nM | CCCCCC[C@H](NC(=O)[C@@H](NC(=O)[C@H](CC(C)C)NC(=O)[C@@H](NC(=O)CNC(=O)[C@@H](NC(=O)[C@H](C)NC(=O)[C@@H]1C[C@@H](O)CN1C(=O)[C@H](CC(N)=O)NC(=O)CN(CCc1ccccc1)C(=O)[C@@H](N)CCCNC(=N)N)c1ccccc1)[C@@H](C)CC)[C@@H](C)O)C(N)=O [Peptide 14] (H-R[Gly(NCH2CH2Ph)]N[Hyp]A[Phg]GILT[Aoc(2)]-NH2; N-terminus assumed)
6 | > 10 nM | < 0.1 nM | CCCCCC[C@H](NC(=O)[C@@H](NC(=O)[C@H](CC(C)C)NC(=O)[C@@H](NC(=O)CNC(=O)[C@@H](NC(=O)[C@H](C)NC(=O)[C@H](Cc1c[nH]cn1)NC(=O)[C@H](CC(N)=O)NC(=O)CN(CCc1ccccc1)C(=O)[C@@H](N)CCCCN/C(=N/CC)NCC)c1ccc(O)cc1)[C@@H](C)CC)[C@@H](C)O)C(N)=O [Peptide 20] (H-[hArg(Et2)][Gly(NCH2CH2Ph)]NHA[Hpg]GILT[Aoc(2)]-NH2)
7 | > 10 nM | < 0.1 nM | CCCC[C@H](NC(=O)[C@@H](NC(=O)[C@H](CC(C)C)NC(=O)[C@@H](NC(=O)CNC(=O)[C@@H](NC(=O)[C@H](C)NC(=O)[C@H](Cc1c[nH]cn1)NC(=O)[C@H](CC(N)=O)NC(=O)CN(CCc1ccccc1)C(=O)[C@H](CCCNC(=N)N)NC(=O)CCOCCOCCOCCOCCOCCOCCN)c1ccccc1)[C@@H](C)CC)[C@@H](C)O)C(N)=O [Peptide 21] (H-[PEG6]R[Gly(NCH2CH2Ph)]NHA[Phg]GILT[Nle]-NH2)
8 | > 10 nM | < 0.1 nM | CCCCC[C@H](NC(=O)[C@@H](NC(=O)[C@H](CC(C)C)NC(=O)[C@@H](NC(=O)CNC(=O)[C@@H](NC(=O)[C@H](C)NC(=O)[C@@H]1C[C@@H](O)CN1C(=O)[C@H](CC(N)=O)NC(=O)CN(CCc1ccccc1)C(=O)[C@H](CCCNC(=N)N)NC(=O)CCOCCOCCOCCOCCOCCOCCN)c1ccccc1)[C@@H](C)CC)[C@@H](C)O)C(N)=O [Peptide 27] (H-[PEG6]R[Gly(NCH2CH2Ph)]N[Hyp]A[Phg]GILT[Ahp(2)]-NH2)

— patent publication US20240360175A1, “PEPTIDE DERIVATIVES AND RELATED USES AS OREXIN AGONISTS” (Centessa Pharmaceuticals (UK) Limited, priority 2021, published 2024)
